The assay relates to Mouse macrophages. The assay is described as follows: Evaluation of Reactive Nitrogen Species Inhibiting Ability (nitric oxide production in LPS-treated mouse macrophages, Griess reagent). In kind it is cell-based. The settings on record: under the treatment concentration of the 3-hydroxypropionic acid; LPS 1 μg/ml. The method, then:
Mouse macrophages were divided into 1×10^6 cells in a 6-well plate and cultured for 24 hours, then treated with LPS (Lipopolysaccharide, concentration 1 μg/ml) solution, and treated with the 3-hydroxypropionic acid aqueous solution according to Preparation Example 1 at four concentrations (3HP concentration: 0 wt. %, 0.0125 wt. %, 0.025 wt. %, 0.05 wt. %), and then cultured again for 24 hours. Only the medium was then separated and centrifuged for 10 minutes to collect only the supernatant. The supernatant was mixed with Griess reagent (Sigma-Aldrich) reagent in a 1:1 ratio and reacted at room temperature, and then the absorbance (OD, wavelength 540 nm) was measured using a microplate reader. The measured value was substituted into the regression equation obtained from the standard curve prepared by reacting Griess reagent (Sigma-Aldrich) and NaNO2 in a 1:1 ratio to calculate the amount of nitric oxide (NO) produced. Here, the case in which neither the LPS solution nor the 3HP aqueous solution was treated was performed as a negative control group.
For orientation: Nitrite, measured by Griess reagent, commonly stands in for NO production.

Each structure is given as a SMILES string.

For `O=C(O)CCO` [3HP, 3-Hydroxypropionic acid], the “effect of inhibiting the production of reactive nitrogen species” value was “the effect of inhibiting the production of reactive nitrogen species was exhibited”.
